Reference: ChEMBL document CHEMBL5614448, “Current Trends in Psychedelic Science: Integrating Modified Lysergic Acid Derivatives and Psilocybin in Modern Medicine” (ACS Med Chem Lett, 2024)

Columns and labels:
[1] = biological target: T1, 5-hydroxytryptamine receptor 2A (Homo sapiens, UniProt P28223); assay: Activation of human 5-HT2A receptor
[2] = biological target: T1, 5-hydroxytryptamine receptor 2A; assay: Displacement of [125I]DOI from 5-HT2A receptor (unknown origin) assessed as inhibition constant
[3] = biological target: T1, 5-hydroxytryptamine receptor 2A; assay: Activation of human 5-HT2A receptor assessed as maximal activation relative to control; conditions: filed as activator

T1 sequence (P28223 whole entry): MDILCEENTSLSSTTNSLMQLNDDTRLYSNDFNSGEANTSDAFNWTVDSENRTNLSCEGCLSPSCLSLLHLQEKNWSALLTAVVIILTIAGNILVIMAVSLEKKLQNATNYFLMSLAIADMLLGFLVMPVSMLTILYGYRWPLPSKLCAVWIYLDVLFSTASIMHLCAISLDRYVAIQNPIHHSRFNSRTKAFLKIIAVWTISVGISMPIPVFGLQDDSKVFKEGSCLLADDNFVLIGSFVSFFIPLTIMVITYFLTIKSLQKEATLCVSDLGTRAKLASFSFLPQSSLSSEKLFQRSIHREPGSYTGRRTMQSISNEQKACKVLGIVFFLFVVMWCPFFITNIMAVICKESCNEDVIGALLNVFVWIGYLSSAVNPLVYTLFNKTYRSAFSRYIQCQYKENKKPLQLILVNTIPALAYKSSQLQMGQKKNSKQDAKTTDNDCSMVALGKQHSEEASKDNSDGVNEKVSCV

SMILES | EC50 [1] | Ki [2] | max activation [3]
CN(CC(F)(F)F)C(=O)[C@@H]1C=C2c3cccc4[nH]cc(c34)C[C@H]2N(C)C1 | 9.1 nM | 0.26 nM | 72%
CCN(CC(F)F)C(=O)[C@@H]1C=C2c3cccc4[nH]cc(c34)C[C@H]2N(C)C1 | 0.76 nM | 0.21 nM | 77%
C#CCN(CC)C(=O)[C@@H]1C=C2c3cccc4[nH]cc(c34)C[C@H]2N(C)C1 | 0.83 nM | 0.36 nM | 68%
CN1C[C@H](C(=O)N(CC(F)F)CC(F)F)C=C2c3cccc4[nH]cc(c34)C[C@H]21 | 0.9 nM | 0.33 nM | 82%
CCN(CCF)C(=O)[C@@H]1C=C2c3cccc4[nH]cc(c34)C[C@H]2N(C)C1 | 0.43 nM | 0.34 nM | 69%
CN1C[C@H](C(=O)N(CCF)CC(F)F)C=C2c3cccc4[nH]cc(c34)C[C@H]21 | 0.25 nM | 0.43 nM | 78%
CCN(CC#N)C(=O)[C@@H]1C=C2c3cccc4[nH]cc(c34)C[C@H]2N(C)C1 | 0.88 nM | 0.19 nM | 68%
CCN(CC(F)(F)F)C(=O)[C@@H]1C=C2c3cccc4[nH]cc(c34)C[C@H]2N(C)C1 | 3.2 nM | 0.45 nM | 82%
C#CCN(C)C(=O)[C@@H]1C=C2c3cccc4[nH]cc(c34)C[C@H]2N(C)C1 | 0.98 nM | 0.54 nM | 70%
